The test system of assay [1] is Candida albicans ATCC 10231. Briefly: Growth with chelating materials of different molecular weight, 84 hours. The settings on record: 30° C., defined medium without added iron, FIG. 8. It counts as cell-based. The protocol:
Candida albicans ATCC 10231 was tested for its sensitivities to: the medical chelator deferiprone (#1 in the graph of FIG. 8) (a product of Apotex Pharmaceuticals); the precursor chemicals used for the preparation of soluble chelating compositions of the present invention, including 3-hydroxy-2-methyl-4-pyrone (#2 in the graph of FIG. 8), AHMP as from Example 1 (#3 in the graph of FIG. 8) and MAHMP as from Example 2 (#4 in the graph of FIG. 8) and also the soluble chelating composition as from Example 4 (#5 in the graph of FIG. 8). The yeast was grown in defined medium as for Example 18 with no additional added iron (i.e., the only but adequate Fe available for the yeast was contributed from being present along with the other added medium components). Growth of the yeast in the defined media with added test chelating materials was compared to control samples that had not received any of the chelating materials following 84 hours of incubation and growth at 30° C. […] These chelators being internalized by the yeast were incapable of restricting iron supply to the yeast cells. […] Thus, low molecular weight chelators such as deferiprone and similar compounds permitted growth while the soluble chelating composition that contained functional groups similar to deferiprone but was a molecular weight higher than 1500 Daltons restricted growth, eventhough the various compounds tested were each capable of binding iron through their pyridinone functionality.

For a further assay, the system named is P. aeruginosa. Briefly: MIC of chelators in Fe-restricted RPMI. In kind it is cell-based, Pseudomonas aeruginosa. The protocol: (§1) Soluble chelating compositions prepared as in example 4 and example 6 as well as the commercially clinically used low molecular weight (<1500 Da) chelators desferal (Novartis Pharmaceutical Company) and deferiprone (Apotex Pharmaceutical Company) were tested as to their MICs against representative pathogenic bacterial species in RPMI medium that had been treated as in example 38 but to which Fe was re-added to known concentrations that permitted growth of the bacteria under partially Fe restrictive conditions, i.e., so as to simulate the low Fe environmental supply available during infection by these bacteria in man or other animals. MIC testing was done in a manner similar to that described for example 15 but with test series being conducted in multi-well microtiter plates, each well providing a separate treatment test.
(§2) The clinically used chelators were not inhibitory in the case of Pseudomonas aeruginosa with no inhibition observed at the highest concentration tested (300 μg/ml for desferal and 100 μg/ml for deferiprone). Staphylococcus aureus was not inhibited by desferal and was inhibited by deferiprone to a lesser extent than for the soluble compositions of the present invention. Conversely, Escherichia coli was not inhibited by deferiprone but was inhibited substantially by desferal.

For the next assay, the system named is S. aureus. Description: MIC of chelators in Fe-restricted RPMI. In kind it is cell-based. The note with it: Staphylococcus aureus. The protocol: as §1, §2
The next assay relates to E. coli. Briefly: MIC of chelators in Fe-restricted RPMI. In kind it is cell-based, Escherichia coli. The note with it: Escherichia coli. As to the method:
as §1, §2

In assay [2] the test system is Candida albicans ATCC 10231. Description: Fluconazole MIC (80% growth inhibition) with soluble chelator. In kind it is cell-based. As to the method: Candida albicans ATCC 10231, yeast cells, as grown in defined medium with no additional added Fe as in example 18, were tested in the same media for their sensitivities to fluconazole, an anti-cellular agent as proto-typical of the azole class of antibiotics that are commonly used to control fungal growth and pathogenesis in humans and with fluconazole plus the soluble chelating composition, as prepared in Example 4. Fluconazole as a typical member of the azole class of anti-fungal antibiotics that function by inhibiting sterol synthesis.

Assay [3] concerns Candida albicans ATCC 10231. Description: Challenge growth test, fluconazole and chelator within a semi-permeable device. In kind it is cell-based. The source says:
In one such culture, only medium was present as a control. […] The chelator was not added directly to the culture medium but was provided as within a dialysis membrane within the culture medium, such that only the external surfaces of the dialysis membrane device were in contact with the bulk of the culture medium, the chelator being within the membrane bag. The dialysis membrane was of the same type that had been used to prepare the soluble chelator and thus its use here ensured that the added chelator would be retained within the membrane device as in contact with the culture medium from within a semi-permeable membrane, i.e., the dialysis tubing. […] All four test cultures were inoculated with the yeast and growth was monitored at intervals in the test cultures by optical density measurement at 600 nm over a 120 hr test period.

Assay [4] concerns Candida albicans ATCC 10231. Description: Preservative agent MIC (80% inhibition) challenge test with soluble chelator. It counts as cell-based.
For assay [5], the system named is Candida albicans ATCC 10231. Briefly: Challenge growth test, sorbate and chelator within a semi-permeable device. In kind it is cell-based. The settings on record: sorbate […] with 0.3 mg soluble chelator (example 4) in the semi-permeable device. From the text:
In one such culture, only medium was present as a control. […] The chelator was not added directly to the culture medium but was provided as within a dialysis membrane within the culture medium, such that only the external surfaces of the dialysis membrane device were in contact with the bulk of the culture medium, the chelator being within the membrane bag. The dialysis membrane was of the same type that had been used to prepare the soluble chelator and thus its use here ensured that the added chelator would be retained within the membrane device as in contact with the culture medium from within a semi-permeable membrane, i.e., the dialysis tubing. Thus the chelator would not be in direct physical contact with the yeast cells while any iron or sorbate or other low molecular weight media constituents or low molecular weight yeast cell products in the test milieu could diffuse in or out of the semi-permeable device. In a fourth test, 0.3 mg soluble chelator within a similar dialysis bag was added but sorbate was not added to the medium. All four test cultures were inoculated with the yeast and growth was monitored at intervals in the test cultures by optical density measurement at 600 nm over a 120 hr test period.

These results are taken from patent US10709784B2, “Metal chelating compositions and methods for controlling the growth or activities of a living cell or organism” (CHELATION PARTNERS INCORPORATED, priority 2011, dated 2020).

Each structure is given as a SMILES string. Read-outs that look alike come from different tables or passages of the source.

For `Cc1c(O)c(=O)ccn1CCN` [AHMP, 1-aminoethyl-3-hydroxy-2-methyl-4(1H)-pyridinone], in assay [1], the “growth of the yeast compared to control” value is listed as “did not substantially restrict growth”.

For `CC(=O)N(O)CCCCCNC(=O)CCC(=O)N(O)CCCCCNC(=O)CCC(=O)N(O)CCCCCN` [DESFERAL, deferoxamine], the MIC was over 300 µg/mL in the assay on P. aeruginosa (Pseudomonas aeruginosa, treated RPMI with 0.02 μM Fe, read-out: MIC); over 300 µg/mL with P. aeruginosa (treated RPMI with 0.09 μM Fe); over 300 µg/mL with S. aureus (treated RPMI with 0.02 μM Fe); over 300 µg/mL in the assay on S. aureus (treated RPMI with 0.09 μM Fe); 0.59 µg/mL in the assay on E. coli (treated RPMI with 0.09 μM Fe); 0.009 µg/mL in the assay on E. coli (treated RPMI with 0.02 μM Fe, read-out: MIC).

In the case of `OC(Cn1cncn1)(Cn1cncn1)c1ccc(F)cc1F` [Fluconazole], the MIC was over 6 µg/mL in assay [2] (ATCC10231, 96 h, Fluconazole alone, 4 d); under 0.05 µg/mL in assay [2] (ATCC10231, 96 h, plus 25 μg/ml soluble chelator (example 4), 4 d); over 6 µg/mL in assay [2] (ATCC10231, 96 h, plus Fe-saturated soluble chelator, 4 d); under 0.05 µg/mL in assay [2] (ATCC10231, 96 h, plus […] soluble chelator (Example 4), 4 d); over 6 µg/mL in assay [2] (ATCC10231, 240 h, Fluconazole alone, 10 d); under 0.05 µg/mL in assay [2] (ATCC10231, 240 h, plus 25 μg/ml soluble chelator (example 4), 10 d). Moreover, the MIC in assay [2] (ATCC10231, 240 h, plus Fe-saturated soluble chelator, 10 d) was over 6 µg/mL; in assay [2] (ATCC10231, 240 h, plus […] soluble chelator (Example 4), 10 d) it was 0.05 µg/mL; in assay [2] (ATCC10231, Fluconazole alone, 42 d) it was over 6 µg/mL; in assay [2] (ATCC10231, plus 25 μg/ml Soluble chelator (Example 4), 42 d) it was under 0.05 µg/mL; in assay [2] (ATCC10231, plus Fe-saturated soluble chelator, 42 d) it was over 6 µg/mL; in assay [2] (ATCC10231, plus […] soluble chelator (Example 4), 42 d), 0.19 µg/mL. The “yeast growth (OD 600 nm over 120 hr)” value was “only delayed and partially restricted yeast growth” in assay [3] (fluconazole 0.083 μg/ml alone); “prevented growth completely” in assay [3] (fluconazole 0.083 μg/ml with 0.3 mg soluble chelator (example 4) in the semi-permeable device).

For `C=C(C)C(=O)NCCn1ccc(=O)c(O)c1C` [MAHMP, 3-hydroxy-1-(β-methacrylamidoethyl)-2-methyl-4(1H)-pyridinone], the “growth of the yeast compared to control” value in assay [1] was “did not substantially restrict growth”.

On to `C/C=C/C=C/C(=O)[O-].[K+]` [Sorbate, potassium sorbate], for which the MIC in assay [4] (ATCC10231, 48 h, read-out: Sorbate or Paraben MIC, plus soluble chelating composition (Example 4) 25 μg/ml, 2 days) is under 20 µg/mL; in assay [4] (ATCC10231, 48 h, read-out: Sorbate or Paraben MIC, plus soluble chelating composition (Example 4) […], 2 days), under 20 µg/mL; in assay [4] (ATCC10231, 48 h, read-out: Sorbate or Paraben MIC, preservative alone, 2 days), 120 µg/mL; in assay [4] (ATCC10231, 240 h, read-out: Sorbate or Paraben MIC, plus soluble chelating composition (Example 4) 25 μg/ml, 10 days) it was 30 µg/mL; in assay [4] (ATCC10231, 240 h, read-out: Sorbate or Paraben MIC, plus soluble chelating composition (Example 4) […], 10 days), under 20 µg/mL; in assay [4] (ATCC10231, 240 h, read-out: Sorbate or Paraben MIC, preservative alone, 10 days), 250 µg/mL. Moreover, the “yeast growth (OD 600 nm over 120 hr)” value in assay [5] was “prevented growth completely”.
